Assay results from US9119395B2, “Active substance mixtures comprising OPP and amines, microbicidal agents” (LANXESS Deutschland GmbH, priority 2005, dated 2015).

Assays:
[1] = tested on: microorganism mixture: Pseudomonas aeruginosa, Pseudomonas fluorescens, Pseudomonas oleovorans, Pseudomonas rubescens, Pseudomonas stutzeri, Alcalaigenes …; experiment: Microbiological preservation stress test in a chalk suspension; format: cell-based; conditions: 60° C. for 3 days before test, weekly contamination
Text: The preserving action of an active compound mixture according to the invention was examined in a chalk suspension using a preservation stress test.
The microbiological stress test examines the susceptibility of water-based systems to microbial attack and the action of preservatives. To this end, the preservatives are incorporated in defined concentrations into the water-based systems. To simulate praxis-like conditions, depending on the medium to be examined, a storage at elevated temperatures (for example 7 days at 40° C., 3 days at 60° C. or the like) may be carried out prior to the actual preservation test to evaluate the preservatives to be examined under conditions which are as realistic as possible. After the preparations have been carried out, contamination with microorganisms of a defined species is carried out at weekly intervals over a test period of at most 6 weeks. 2-3 and 7 days after each contamination, by counting the number of germs, it is established whether a complete kill or at least inhibition of propagation of the bacteria introduced has been achieved, compared to the unpreserved control samples.
The contamination source used for the examination in the stress test was the following microorganism mixture:
Very good activity is achieved when, even after 6 contamination cycles, the reserved samples effect a kill of the microorganisms introduced.
Using a chalk suspension (proportion of solids 70-75%), a preservation stress test according to the above scheme was carried out. After incorporation of the respective biocidally active compounds at the stated concentrations, the samples were exposed to thermal stress at 60° C. for 3 days. The samples pre-treated in this manner were then used for carrying out the microbiological stress test.

Pseudomonas fluorescens = experiment: Minimum inhibitory concentration and synergism (Kull synergistic index) of OPP/AMINE 1 combinations; format: cell-based; conditions: compound applied on its own (QA/QB)
Text: The observed synergism of the mixtures according to the invention can be determined by the following mathematical approach (cf. F. C. Kull, P. C. Elisman, H. D. Sylwestrowicz and P. K. Mayer, Appl. Microbiol, 9, 538 (1961):
[formula] where • Qa=the amount of component A in the active compound mixture required to achieve the desired effect, i.e. no microbial growth, • QA=the amount of component A which, applied on its own, suppresses the growth of the microorganisms, • Qb=the amount of component B in the active compound mixture which suppresses the growth of the microorganisms, • Qb=the amount of component B which, applied on its own, suppresses the growth of the microorganisms.
A synergistic index of SI<1, in accordance with the above formula, indicates a synergistic effect for the active compound mixture.
The minimum inhibitory concentration of the active compound combinations listed in Table 1 were examined using the test germ Pseudomonas fluorescens

## Oc1ccccc1-c1ccccc1 [OPP, o-phenylphenol]
[1]; 150 ppm
  Week 1: ok
  Week 2: spoilt
  Week 3: spoilt
  Week 4: spoilt
  Week 5: spoilt
  Week 6: spoilt
[1]; 200 ppm
  Week 1: ok
  Week 2: ok
  Week 3: ok
  Week 4: ok
  Week 5: spoilt
  Week 6: spoilt
Pseudomonas fluorescens
  Amount of pure active compounds required to suppress growth: 500 (=QA) ppm

## CCCCCCCCCCCCN(CCCN)CCCN [“AMINE 1”, bis(3-aminopropyl)dodecylamine]
[1]; 80 ppm
  Week 1: ok
  Week 2: spoilt
  Week 3: spoilt
  Week 4: spoilt
  Week 5: spoilt
  Week 6: spoilt
[1]; 160 ppm
  Week 1: ok
  Week 2: ok
  Week 3: ok
  Week 4: spoilt
  Week 5: spoilt
  Week 6: spoilt
Pseudomonas fluorescens
  Amount of pure active compounds required to suppress growth: 50 (=QB) ppm
